Assays:
neutrophils = experiment: Cytokine production by PEP005-treated human neutrophils; type: cell-based; conditions: 6 h, supernatant
Description: Cytokine production by PEP005-treated human cells Confluent cultures of Me10538 cells, keratinocytes, fibroblasts and neutrophils were incubated for 6 h in the absence or presence of PEP005 (1-100 ng/ml). The supernatants were harvested and analyzed for the presence of the following cytokines; TNF-α, IL-6 and IL-8 using a multiplex detection kit (Biosource International, Nivelles, Belgium). Units of detected proteins are pg/ml.

MMP-2 = experiment: Gelatin zymography of FPCL conditioned medium; type: cell-based, human; conditions: PEP005 0.01-0.1 μg/ml
Text: The ability of dermal fibroblasts to remodel/reorganize their ECM environment in the presence of PEP005 was examined by fibroblast populated collagen lattices (FPCLs), according to Cook et al (2000). Following trypsinization, dermal fibroblasts were suspended in Fibroblast-Serum Containing Medium, containing 10% gelatinase-free, fetal calf serum (prepared using a gelatin-A Sepharose column, GE Healthcare Ltd., Buckinghamshire, U.K.), to remove endogenous MMP-2 and MMP-9 activity. […] The degree of ECM reorganization/lattice contraction was quantified from three separate lattice diameter measurements performed on each of the three replicate samples, at days 1, 2, 3, 4, 5, 6, 7, 10 and 14, after initial fabrication. […]
To determine the relative amounts of pro- and active MMP species produced by the cells in the FPCL systems, gelatin zymography was employed, according to Cook et al (2000). Equal volumes (15 μl) of FPCL conditioned medium were subjected to sodium dodecyl sulphate-polyacrylamide gel electrophoresis (SDS-PAGE), on pre-cast 10% gelatin zymography gels (Ready Gel 10% Gelatin Zymogram Gels, Bio-Rad Laboratories Ltd., Hertfordshire, U.K.), incorporated into a Mini-Protean 3 Gel Electrophoresis System (Bio-Rad Laboratories Ltd.), at 15 mA for 4-5 h. […]

`C/C=C(/C)C(=O)O[C@H]1C(C)=C[C@]23C(=O)[C@@H](C=C(CO)[C@@H](O)[C@]12O)[C@H]1[C@@H](C[C@H]3C)C1(C)C` [PEP005, ingenol-3-angelate] gave an IL-8 (neutrophils; PEP005 1 ng/ml) of 7089 ± 1293 pg/mL, an IL-8 (neutrophils; PEP005 10 ng/ml) of 2241 ± 684 pg/mL and an IL-8 (neutrophils; PEP005 100 ng/ml) of 617 ± 52 pg/mL. The “Pro and active MMP-2 levels” value (MMP-2) was “observed to increase”.

Reference: patent US20090215884A1, “METHOD FOR WOUND HEALING” (priority 2005, published 2009)
